Among the test systems are HS 578T breast; NCI/ADR-RES ovarian; SNB-75 CNS; BT-549 breast; COLO 205 colon; NCI-H460 lung; NCI-H226 lung; SR leukemia; OVCAR-5 ovarian; MALME-3M melanoma.
Holding throughout (assay): NCI-60 cell line screen, 48 h

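Grown in 96-well plates, cells were treated for 48 hours with each compound at five concentrations. Insufficient inhibition: endpoint recorded as highest concentration tested. At the GI50, growth is halved. TGI: total growth inhibition.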

For `Nc1nc(SCC(=O)O)[nH]c(=O)c1N`, the TGI in the assay with HS 578T breast, with NCI/ADR-RES ovarian, in the assay on SNB-75 CNS, with BT-549 breast, in the assay on COLO 205 colon and in the assay with NCI-H460 lung was over 100 µM throughout. Also, the TGI with NCI-H226 lung was over 100 µM; with SR leukemia it was 77.7 µM; in the assay on OVCAR-5 ovarian it was over 100 µM; in the assay on MALME-3M melanoma, over 100 µM.
As to `Cc1ccc2c(/C=C/C(=O)c3cc(CN4CCOCC4)c(O)c4nc(C)ccc34)cc(CN3CCOCC3)c(O)c2n1`, the GI50 in the assay on HS 578T breast is 1280 nM; in the assay on NCI/ADR-RES ovarian it was 0.162 µM; in the assay with SNB-75 CNS, 0.938 µM; with BT-549 breast, 1220 nM; in the assay on COLO 205 colon, 1.82 µM; in the assay with NCI-H460 lung it was 385 nM. Further, the GI50 with NCI-H226 lung was 1240 nM; in the assay with SR leukemia, 318 nM; in the assay with OVCAR-5 ovarian, 1550 nM; with MALME-3M melanoma it was 2000 nM. Further, the TGI is over 100 µM with HS 578T breast; over 100 µM with NCI/ADR-RES ovarian; 16.6 µM with SNB-75 CNS; 4.7 µM with BT-549 breast; 4.49 µM in the assay with COLO 205 colon; 9.37 µM in the assay on NCI-H460 lung. Besides, the TGI was determined as 4.13 µM in the assay on NCI-H226 lung, 11.9 µM in the assay on SR leukemia, 13.1 µM with OVCAR-5 ovarian and 10.6 µM in the assay with MALME-3M melanoma.
As for `CCN(Cc1ccc(F)cc1F)c1ccc(CO)c(Cl)c1`, the GI50 in the assay with HS 578T breast is 18900 nM; with NCI/ADR-RES ovarian, 12.6 µM; in the assay with SNB-75 CNS, 12.8 µM; in the assay on BT-549 breast, 14300 nM; in the assay with COLO 205 colon, 3.31 µM; in the assay on NCI-H460 lung, 259 nM. Further, the GI50 in the assay on NCI-H226 lung is 94.5 nM; in the assay on SR leukemia it was 23200 nM; in the assay with OVCAR-5 ovarian it was 68.5 nM; in the assay with MALME-3M melanoma, 18200 nM. The TGI was over 72.8 µM in the assay with HS 578T breast; 32 µM with NCI/ADR-RES ovarian; 45.3 µM in the assay with SNB-75 CNS; 34.8 µM with BT-549 breast; 9.24 µM in the assay on COLO 205 colon; 6.68 µM in the assay on NCI-H460 lung. Moreover, the TGI was 0.219 µM in the assay on NCI-H226 lung, 82.1 µM with SR leukemia, 0.317 µM in the assay on OVCAR-5 ovarian and 42.8 µM in the assay on MALME-3M melanoma.
Consider `COc1ccc(/C=C/C(=O)/C=C(/C=C/c2ccc(OC)c(OC)c2)OB(F)F)cc1OC`, for which the GI50 in the assay with HS 578T breast is 1310 nM; with NCI/ADR-RES ovarian, 0.529 µM; in the assay with SNB-75 CNS, 1.02 µM; with BT-549 breast, 1130 nM; in the assay with COLO 205 colon, 0.37 µM; in the assay with NCI-H460 lung, 1680 nM. Further, the GI50 in the assay on NCI-H226 lung is 2000 nM; in the assay with SR leukemia it was 287 nM; with OVCAR-5 ovarian, 2260 nM; in the assay with MALME-3M melanoma, 510 nM. Moreover, the TGI in the assay with HS 578T breast is 8.15 µM; with NCI/ADR-RES ovarian, over 100 µM; with SNB-75 CNS, 8.06 µM; with BT-549 breast, 2.68 µM; in the assay with COLO 205 colon it was 1.57 µM; with NCI-H460 lung, 4.58 µM. Moreover, the TGI stood at 6.88 µM in the assay on NCI-H226 lung, 1.69 µM in the assay with SR leukemia, 5.86 µM with OVCAR-5 ovarian and 4.25 µM in the assay on MALME-3M melanoma.
With `Clc1ccc(N2COOC3(OOC2)C2CC4CC(C2)CC3C4)cc1`, the GI50 in the assay with HS 578T breast was 8990 nM; in the assay on NCI/ADR-RES ovarian, 5.34 µM; in the assay on SNB-75 CNS, 10.8 µM; in the assay on BT-549 breast it was 5960 nM; in the assay with COLO 205 colon, 12.7 µM; in the assay with NCI-H460 lung it was 1570 nM. Besides, the GI50 with NCI-H226 lung is over 61200 nM; in the assay on SR leukemia, 2190 nM; with OVCAR-5 ovarian it was 8340 nM; in the assay on MALME-3M melanoma, 14400 nM. In addition, the TGI in the assay on HS 578T breast is over 100 µM; in the assay on NCI/ADR-RES ovarian, 74.9 µM; in the assay on SNB-75 CNS, 55.2 µM; in the assay on BT-549 breast, over 58 µM; in the assay on COLO 205 colon, 90.8 µM; with NCI-H460 lung, 9.27 µM. Besides, the TGI in the assay on NCI-H226 lung is over 100 µM; in the assay with SR leukemia, 11.4 µM; in the assay on OVCAR-5 ovarian, over 74.8 µM; with MALME-3M melanoma it was over 100 µM.
On to `Cc1c(C(=O)CCl)c(=O)n(-c2ccccc2)n1C`, for which the GI50 in the assay with HS 578T breast is 922 nM; in the assay with NCI/ADR-RES ovarian, 5.53 µM; in the assay with SNB-75 CNS, 10.9 µM; in the assay on BT-549 breast, 2460 nM; in the assay on COLO 205 colon, 3.28 µM; in the assay on NCI-H460 lung it was 7940 nM. The GI50 in the assay with NCI-H226 lung is 13300 nM; in the assay with SR leukemia, 2280 nM; with OVCAR-5 ovarian it was 13300 nM; with MALME-3M melanoma it was 1310 nM. Besides, the TGI with HS 578T breast was found to be 5.52 µM; in the assay with NCI/ADR-RES ovarian, 27.3 µM; with SNB-75 CNS, 29.5 µM; in the assay with BT-549 breast, 12.8 µM; with COLO 205 colon, 11.2 µM; with NCI-H460 lung, 32.1 µM. The TGI came to 33.2 µM with NCI-H226 lung, 13.5 µM in the assay on SR leukemia, 27.1 µM in the assay with OVCAR-5 ovarian and 6.98 µM with MALME-3M melanoma.

The values above are taken from PubChem BioAssay (NCI).
